Experimental data: patent publication US20190264229A1, “DEVICE, SYSTEM AND METHOD FOR INTRACELLULAR DELIVERY OF SUBSTANCES” (Agency for Science, Technology and Research, priority 2016, published 2019)

Tested on: HEK293T cells
Test: Pipette tip filter loading of fluorescein-labeled cargo into HEK293T cells, flow cytometry
Assay type: cell-based
Settings: pipetted through the filter vs not passed through the filter, 0.4 million HEK293T, 12 hours recovery
Protocol: To establish if other cargoes can be loaded with this method, 0.4 million HEK293T cells were mixed with 50 pmoles of fluorescein-labeled 21nt DNA oligonucleotide, 50 pmoles of fluorescein-labeled 21nt double-stranded siRNA, or 5 μg of fluorescein-dextran (MW 3000-5000) in 500 μl of OptiMEM. The mixture was aspirated and dispensed through the filter with the 1 ml pipette in triplicates. The mixture was then transferred into 2 ml of regular DMEM medium and the cells allowed to recover for 12 hours at 37° C. After which, the cells were washed 3 times with DMEM and collected for flow cytometry.

With Dextran the “percentage of cells having a higher than background fluorescence” value was “clearly higher”.
